Data taken from patent US7666876B2, “Buprenorphine formulations for intranasal delivery” (Vernalis (R&D) Limited, priority 2002, dated 2010).

Experiment: Effect of dextrose and mannitol concentration on buprenorphine solubility in pectin solution (hplc)
Conditions: aqueous solution containing 20 mg/ml pectin, across the measured pH range
Procedure: Solutions containing pectin (Slendid 100) (20 mg/ml) were prepared at pH 3, 4, 5 and 6 (pH adjustments were made with 0.1M HCl or 0.1M meglumine). […] An excess of buprenorphine hydrochloride was then added and the mixture stirred overnight at 18° C. Saturated buprenorphine hydrochloride solutions were produced by passing each mixture through a 0.2 μm polycarbonate membrane filter. The concentration of buprenorphine hydrochloride in the filtrate was determined by hplc.

## CO[C@]12CCC3(C[C@@H]1[C@@](C)(O)C(C)(C)C)[C@H]1Cc4ccc(O)c5c4[C@@]3(CCN1CC1CC1)C2O5 (stereo partly shown) [Buprenorphine]
  Effect of dextrose or mannitol concentration on buprenorphine solubility: not affected significantly
